Active and inactive are the calls of the source. The calls are words filed in the database; no cut-off is given here.
Columns and labels:
[1] = biological target: T1, Dual specificity mitogen-activated protein kinase kinase 1 (Homo sapiens, UniProt Q02750); test: Inhibition of MEK1 (unknown origin) assessed as remaining activity at 0.1 uM relative to control
HCT-116 [2] = test: Antiproliferative activity against human HCT-116 cells harboring KRAS G13D mutant incubated for 72 hrs by CCK8 assay; type: functional, cell-based; conditions: HCT-116, 72 h
MIA PaCa-2 [3] = test: Antiproliferative activity against human MIA PaCa-2 cells harboring KRAS G12C mutant at 0.1 uM incubated for 72 hrs by CCK8 assay relative to control; type: functional
MIA PaCa-2 [4] = test: Antiproliferative activity against human MIA PaCa-2 cells harboring KRAS G12C mutant incubated for 72 hrs by CCK8 assay; type: functional, cell-based; conditions: MIA PaCa-2, 72 h
HCT-116 [5] = test: Antiproliferative activity against human HCT-116 cells harboring KRAS G13D mutant at 1 uM incubated for 72 hrs by CCK8 assay relative to control; type: functional
[6] = biological target: T2, Serine/threonine-protein kinase B-raf (Homo sapiens, UniProt P15056); test: Inhibition of BRAF (unknown origin) assessed as remaining activity at 0.1 uM relative to control
T2 sequence (P15056 whole entry): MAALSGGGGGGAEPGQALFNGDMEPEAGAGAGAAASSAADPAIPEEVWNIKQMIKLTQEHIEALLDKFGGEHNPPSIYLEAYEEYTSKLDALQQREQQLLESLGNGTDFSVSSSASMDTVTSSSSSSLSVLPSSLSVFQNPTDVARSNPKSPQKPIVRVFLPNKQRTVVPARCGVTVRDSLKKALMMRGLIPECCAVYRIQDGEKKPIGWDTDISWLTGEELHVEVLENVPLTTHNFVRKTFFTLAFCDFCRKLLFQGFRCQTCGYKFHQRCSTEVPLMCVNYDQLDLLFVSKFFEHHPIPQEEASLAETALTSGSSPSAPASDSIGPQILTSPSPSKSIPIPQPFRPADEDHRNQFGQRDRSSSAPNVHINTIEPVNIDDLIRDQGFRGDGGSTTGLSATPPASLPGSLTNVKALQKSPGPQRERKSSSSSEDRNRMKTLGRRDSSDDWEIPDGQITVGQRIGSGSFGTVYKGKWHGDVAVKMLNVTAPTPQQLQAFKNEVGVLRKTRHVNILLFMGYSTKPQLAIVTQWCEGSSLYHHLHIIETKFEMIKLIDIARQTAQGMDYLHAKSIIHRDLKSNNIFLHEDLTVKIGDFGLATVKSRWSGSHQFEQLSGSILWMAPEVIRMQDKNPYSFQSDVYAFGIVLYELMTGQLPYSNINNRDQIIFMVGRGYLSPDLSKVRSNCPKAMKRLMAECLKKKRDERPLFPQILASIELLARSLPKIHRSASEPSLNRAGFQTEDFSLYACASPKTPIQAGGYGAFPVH

[7] = biological target: Dual specificity mitogen-activated protein kinase kinase; MEK1/2 (Homo sapiens) (UniProt P36507+Q02750); test: Inhibition of MEK phosphorylation in human MIA PaCa-2 cells upto 1 uM incubated for 4 hrs by Western blot analysis; type: cell-based
Chain of Dual specificity mitogen-activated protein kinase kinase; MEK1/2 (Homo sapiens) (P36507 whole entry, looked up): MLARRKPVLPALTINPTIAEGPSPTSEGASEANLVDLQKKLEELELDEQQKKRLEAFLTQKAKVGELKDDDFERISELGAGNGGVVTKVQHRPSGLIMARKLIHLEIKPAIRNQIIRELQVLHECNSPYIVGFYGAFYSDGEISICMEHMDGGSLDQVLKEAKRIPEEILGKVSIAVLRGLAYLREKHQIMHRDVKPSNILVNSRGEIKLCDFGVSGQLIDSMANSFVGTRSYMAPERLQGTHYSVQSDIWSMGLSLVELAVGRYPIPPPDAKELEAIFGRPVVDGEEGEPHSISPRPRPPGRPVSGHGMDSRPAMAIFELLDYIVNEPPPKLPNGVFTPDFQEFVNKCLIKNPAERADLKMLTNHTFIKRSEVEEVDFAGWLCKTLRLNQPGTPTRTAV
Chain of Dual specificity mitogen-activated protein kinase kinase; MEK1/2 (Homo sapiens) (Q02750 whole entry, looked up): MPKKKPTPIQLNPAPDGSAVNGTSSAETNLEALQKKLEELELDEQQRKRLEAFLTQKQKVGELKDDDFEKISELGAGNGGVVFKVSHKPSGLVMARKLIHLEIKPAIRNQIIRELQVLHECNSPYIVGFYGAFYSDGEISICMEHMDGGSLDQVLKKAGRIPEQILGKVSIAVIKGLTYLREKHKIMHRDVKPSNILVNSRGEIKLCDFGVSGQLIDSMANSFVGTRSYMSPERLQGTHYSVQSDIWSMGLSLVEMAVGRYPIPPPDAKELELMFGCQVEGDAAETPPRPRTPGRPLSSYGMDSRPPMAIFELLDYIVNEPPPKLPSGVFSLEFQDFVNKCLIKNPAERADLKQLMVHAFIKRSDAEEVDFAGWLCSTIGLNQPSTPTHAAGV

[8] = biological target: T1, Dual specificity mitogen-activated protein kinase kinase 1; test: Inhibition of MEK1 (unknown origin)
HeLa = test: Antiproliferative activity against human HeLa cells incubated for 72 hrs by CCK8 assay; type: functional, cell-based
[9] = Antiproliferative activity against rat H9c2 cells incubated for 72 hrs by CCK8 assay; type: toxicity, cell-based
[10] = Stability in human liver microsomes assessed as half life at 200 uM preincubated for 5 mins followed by NADPH addition measured upto 60 mins by LC-MS/MS analysis; type: ADME, Microsome; conditions: time 65 min
[11] = biological target: T2, Serine/threonine-protein kinase B-raf; test: Inhibition of BRAF (unknown origin)
[12] = test system: Mitogen-activated protein kinase 1/3 (ERK1/2) (Homo sapiens); test: Inhibition of ERK phosphorylation in human MIA PaCa-2 cells upto 1 uM incubated for 4 hrs by Western blot analysis
[13] = Antiproliferative activity against mouse C26 cells harboring KRAS G12D mutant incubated for 72 hrs by CCK8 assay; type: functional, cell-based, C-26; conditions: C26, 72 h

T1 sequence (Q02750 whole entry): as the sequence (Q02750 whole entry, looked up) above

Structure (SMILES) | Activity [1] [%] | IC50 (HCT-116 [2]) [nM] | inhibition at 0.1 µM (MIA PaCa-2 [3]) [%] | IC50 (MIA PaCa-2 [4]) [nM] | inhibition at 1 µM (HCT-116 [5]) [%] | Activity [6] [%] | also measured
CCNS(=O)(=O)Nc1cccc(Cn2cnc3c(F)c(Nc4ccc(C)cc4F)c(C(=O)NOCCO)cc32)c1F | 54 | 457 | 55.7 | 219 | 57.6 | 4 | 
CS(=O)(=O)Nc1cccc(Cn2cnc3c(F)c(Nc4ccc(C5CC5)cc4F)c(C(=O)NOCCO)cc32)c1 | 75 |  | 50.5 | 138 | 46.2 | 6 | 
CCNS(=O)(=O)Nc1ccc(F)c(Cn2cnc3c(F)c(Nc4ccc(C5CC5)cc4F)c(C(=O)NOCCO)cc32)c1 |  |  | -38.8 |  | 17.5 |  | 
O=C(NOCCO)c1cc2c(ncn2Cc2cccc(NC(=O)C3CCCCC3)c2)c(F)c1Nc1ccc(C2CC2)cc1F | 88 |  | 11.5 |  | 13.7 | 35 | 
CCC(=O)Nc1cccc(Cn2cnc3c(F)c(Nc4ccc(C5CC5)cc4F)c(C(=O)NOCCO)cc32)c1 | 89 |  | 18 | 985 | 17.8 | 75 | 
O=C(NOCCO)c1cc2c(ncn2Cc2cccc(NC(=O)C3CC3)c2)c(F)c1Nc1ccc(C2CC2)cc1F |  |  | 45 | 628 | 19.3 |  | 
CCNS(=O)(=O)Nc1cccc(Cn2cnc3c(F)c(Nc4ccc(Br)cc4F)c(C(=O)NOCCO)cc32)c1F | 20 | 150 | 22.8 | 362 | 65.1 | 2 | 
CCNS(=O)(=O)Nc1cccc(Cn2cnc3c(F)c(Nc4ccc(C5CCC5)cc4F)c(C(=O)NOCCO)cc32)c1F | 84 |  | 29 | 942 | 56.2 | 4 | 
CNS(=O)(=O)Nc1cccc(Cn2cnc3c(F)c(Nc4ccc(C5CC5)cc4F)c(C(=O)NOCCO)cc32)c1Cl | 19 | 626 | 62.6 | 169 | 55.6 | 3 | 
CNS(=O)(=O)Nc1cccc(Cn2cnc3c(F)c(Nc4ccc(C)cc4F)c(C(=O)NOCCO)cc32)c1F | 58 | 694 | 57.7 | 861 | 74.8 | 3 | 
CNS(=O)(=O)Nc1ccc(F)c(Cn2cnc3c(F)c(Nc4ccc(C5CC5)cc4F)c(C(=O)NOCCO)cc32)c1 | 79 |  | 7.1 |  | 12 | 21 | 
CCNS(=O)(=O)Nc1cc(Cn2cnc3c(F)c(Nc4ccc(C5CC5)cc4F)c(C(=O)NOCCO)cc32)ccc1F |  |  | 34.5 |  | 17.5 |  | 
CNS(=O)(=O)Nc1nccc(Cc2c(C)c3ccc(Oc4ncccn4)cc3oc2=O)c1F [AVUTOMETINIB] |  | 739 | 59.6 | 115 | 56.1 |  | inhibition [7]: Active
CNS(=O)(=O)Nc1cccc(Cn2cnc3c(F)c(Nc4ccc(C5CCC5)cc4F)c(C(=O)NOCCO)cc32)c1F | 76 | 898 | 52.8 | 249 | 48.5 | 5 | 
CNS(=O)(=O)Nc1cccc(Cn2cnc3c(F)c(Nc4ccc(Br)cc4F)c(C(=O)NOCCO)cc32)c1F | 16 | 113 | 35.7 | 225 | 60.3 | 3 | 
Cn1cnc2c(F)c(Nc3ccc(Br)cc3F)c(C(=O)NOCCO)cc21 [BINIMETINIB] |  | 2000 | 58.8 | 182 | 41.4 |  | 
CNS(=O)(=O)Nc1cc(Cn2cnc3c(F)c(Nc4ccc(C5CC5)cc4F)c(C(=O)NOCCO)cc32)ccc1F | 85 |  | 31.6 | 611 | 35.2 | 16 | 
CCNS(=O)(=O)Nc1cc(F)cc(Cn2cnc3c(F)c(Nc4ccc(C5CC5)cc4F)c(C(=O)NOCCO)cc32)c1 | 59 | 140 | 76.5 | 32 | 56.7 | 5 | 
CCNS(=O)(=O)Nc1cccc(Cn2cnc3c(F)c(Nc4ccc(C5CCCC5)cc4F)c(C(=O)NOCCO)cc32)c1F |  |  | 6.88 |  | 26.9 |  | 

Structure (SMILES) | Activity [1] [%] | IC50 (HCT-116 [2]) [nM] | inhibition at 0.1 µM (MIA PaCa-2 [3]) [%] | IC50 (MIA PaCa-2 [4]) [nM] | inhibition at 1 µM (HCT-116 [5]) [%] | Activity [6] [%] | also measured
CCNS(=O)(=O)Nc1cccc(Cn2cnc3c(F)c(Nc4ccc(I)cc4F)c(C(=O)NOCCO)cc32)c1F | 8 | 202 | 65.3 | 43 | 69.1 | 1 | 
CCNS(=O)(=O)Nc1cccc(Cn2cnc3c(F)c(F)c(C(=O)NOCCO)cc32)c1F |  |  | 6.04 |  | 10.8 |  | 
CC(C)CNS(=O)(=O)Nc1cccc(Cn2cnc3c(F)c(Nc4ccc(C5CC5)cc4F)c(C(=O)NOCCO)cc32)c1 | 80 | 425 | 55.8 | 48 | 60.2 | 5 | 
CC(C)NS(=O)(=O)Nc1cccc(Cn2cnc3c(F)c(Nc4ccc(C5CC5)cc4F)c(C(=O)NOCCO)cc32)c1 | 55 | 132 | 65.9 | 150 | 59.3 | 4 | 
O=C(NOCCO)c1cc2c(ncn2Cc2cccc(NC(=O)C3CCC3)c2)c(F)c1Nc1ccc(C2CC2)cc1F | 76 |  | 38.9 | 1280 | 25.1 | 32 | 
CNS(=O)(=O)Nc1cccc(Cn2cnc3c(F)c(Nc4ccc(Br)cc4F)c(C(=O)NOCCO)cc32)c1Cl | 15 |  | 28.4 |  | 47.8 | 3 | 
CNS(=O)(=O)Nc1cccc(Cn2cnc3c(F)c(Nc4ccc(C5CC5)cc4F)c(C(N)=O)cc32)c1 |  |  | 15.8 |  | 21.9 |  | IC50 [8]: > 2000 nM
CCNS(=O)(=O)Nc1cccc(Cn2cnc3c(F)c(Nc4ccc(C5CC5)cc4F)c(C(=O)NOCCO)cc32)c1Cl | 20 | 731 | 76 | 31 | 49.6 | 3 | 
CNS(=O)(=O)Nc1cccc(Cn2cnc3c(F)c(Nc4ccc(C5CCCC5)cc4F)c(C(=O)NOCCO)cc32)c1F | 98 |  | 12.1 |  | 24.8 | 13 | 
CNS(=O)(=O)Nc1cccc(Cn2cnc3c(F)c(Nc4ccc(I)cc4F)c(C(=O)NOCCO)cc32)c1Cl | 5 | 352 | 60.8 | 60 | 66.7 | 1 | 
CCNS(=O)(=O)Nc1cccc(Cn2cnc3c(F)c(Nc4ccc(Br)cc4F)c(C(=O)NOCCO)cc32)c1Cl |  |  | 21.9 |  | 39.8 |  | 
CNS(=O)(=O)N1CCC(Cn2cnc3c(F)c(Nc4ccc(C5CC5)cc4F)c(C(=O)NOCCO)cc32)C1 (stereo not given) |  |  | -13.4 |  | 2.43 |  | 
CNS(=O)(=O)N1CCCC(Cn2cnc3c(F)c(Nc4ccc(C5CC5)cc4F)c(C(=O)NOCCO)cc32)C1 (stereo not given) |  |  | 31.1 |  | -9.58 |  | 
CCNS(=O)(=O)Nc1cccc(Cn2cnc3c(F)c(Nc4ccc(I)cc4F)c(C(=O)NOCCO)cc32)c1Cl | 9 | 377 | 43.1 | 127 | 61.4 | 0 | 
O=C(NOCCO)c1cc2c(ncn2Cc2cccc(NC(=O)C3CCCC3)c2)c(F)c1Nc1ccc(C2CC2)cc1F | 91 |  | -29.7 |  | 4.21 | 71 | 
CNS(=O)(=O)Nc1cc(F)cc(Cn2cnc3c(F)c(Nc4ccc(C5CC5)cc4F)c(C(=O)NOCCO)cc32)c1 | 53 | 173 | 65.8 | 47 | 57.4 | 5 | 
CNS(=O)(=O)Nc1cccc(Cn2cnc3c(F)c(Nc4ccc(I)cc4F)c(C(=O)NOCCO)cc32)c1F | 9 | 74 | 62 | 71 | 64.8 | -2 | IC50 (HeLa): > 10000 nM; IC50 at 72 h [9]: > 50000 nM; IC50 [8]: 8 nM; half-life at 200 µM [10]: 25 min; IC50 [11]: 4 nM; inhibition [7]: Active; inhibition [12]: Active; IC50 [13]: 11 nM
CNS(=O)(=O)Nc1cccc(Cn2cnc3c(F)c(F)c(C(=O)NOCCO)cc32)c1F |  |  | 24.7 |  | 14.8 |  | 
CC(=O)Nc1cccc(Cn2cnc3c(F)c(Nc4ccc(C5CC5)cc4F)c(C(=O)NOCCO)cc32)c1 | 75 |  | 64.8 | 237 | 33.3 | 22 | inhibition [12]: Active

— ChEMBL document CHEMBL5584338, “Design, Synthesis, and Biological Evaluation of 5-Amino-4-fluoro-1H-benzo[d]imidazole-6-carboxamide Derivatives as Novel and Potential MEK/RAF Complex Inhibitors Based on the "Clamp" Strategy” (J Med Chem, 2024)
